Experimental findings from PubChem BioAssay (NCI) are described below.

Where “and” joins values, the source holds several entries; their conditions need not be identical. Equal values may be shown once.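 A five-concentration, 48-hour dose response in 96-well plates underlies each endpoint, interpolated linearly between surrounding concentrations. Here, GI50 denotes the concentration required for 50% inhibition of growth. TGI is the concentration that stops growth completely.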 Some results are limits rather than exact numbers.

The test system of this assay is MDA-MB-468 breast. In words: inhibition of tumour cell growth, NCI panel, 48 h.
For `O=C(NCc1cccnc1)/C(=C\c1ccc(Br)cc1)S(=O)(=O)c1ccccc1`, the GI50 is 266 nM and the TGI was found to be 933 nM.

For `S=c1nc(-c2ccccc2)oc(=NC2CCCCC2)n1C1CCCCC1`, the GI50 is 1970 nM and the TGI was found to be 4830 nM. As for `COc1ccc(C(=O)c2cc(OC)c(OC)c(OC)c2)cc1OC(C)=O`, the GI50 is 754 nM. For `COc1ccc(-c2ccc3c(NC(=O)C4CC4)n[nH]c3n2)cc1`, the GI50 is above 25000 nM and the TGI was above 25000 nM.

As for `Cn1nc(C(F)(F)F)c(-c2ccc(Cl)c(C(F)(F)F)c2)c1-c1ccc(OCc2ccc(Cl)cc2)cc1O`, the GI50 was 1340 nM and the TGI was 3650 nM. In the same order, the values of `CC(C)C[C@H](NC(=O)[C@H](CCc1ccccc1)NC(=O)CN1CCOCC1)C(=O)N[C@@H](Cc1ccccc1)C(=O)N[C@@H](CC(C)C)C(=O)[C@@]1(C)CO1` are below 13.5 nM and 36.2 nM. Taken in the same sequence, the figures for `COc1ccc(-c2nn(-c3cccc(Cl)c3)cc2C=C(C#N)C#N)cc1` were 1670 nM and 4960 nM. `CCCS(=O)(=O)Nc1ccc(F)c(C(=O)c2c[nH]c3ncc(-c4ccc(Cl)cc4)cc23)c1F`: the GI50 is 3550 nM and 5650 nM; the TGI was 20100 nM and > 10000 nM. Regarding `O=C1NC(=O)/C(=C/C=C/c2ccccc2)S1`, the GI50 was 10900 nM and the TGI worked out at 56000 nM. In the same order, the values of `C/C(=N\NC(N)=O)C(CN1CCCCC1)C(c1ccccc1)c1c(O)c2ccccc2oc1=O` (configuration not stated) are above 100000 nM and above 100000 nM. As to `CCN(CC)CCN1C(=O)c2c(c(C)c3c(oc4cc(O)ccc43)c2C)C1=O`, the GI50 is 1460 nM and the TGI was 3010 nM. In the case of `CC1(C)CCC[C@]23C(=O)O[C@](O)(C(=O)C4=C[C@@](C)(/C=C/CCCc5ccc6ccc7cccc8ccc5c6c78)CC[C@@]42O)[C@@H]13`, the GI50 is 196 nM and the TGI was 409 nM.

Turning to `N#Cc1c(NC(=O)c2ccccc2)sc2c1CCC(=O)C2`, the GI50 was 2190 nM and the TGI was 6940 nM.

`CN1/C(=C\C(I)C(I)C2=[N+](C)c3ccccc3C2(C)C)C(C)(C)c2ccccc21` (configuration not stated): the GI50 was 72.3 nM and the TGI came to 1240 nM. In the case of `CCCCCCCCCCCCn1c(C)nc2ccccc21`, the GI50 was 601 nM and the TGI was found to be 19400 nM. Taken in the same sequence, the figures for `COc1ccc(-c2ccc(/C=C/C(=O)NO)cc2)cc1` were 463 nM and 2620 nM. In the case of `CCSc1oc(-c2ccccc2)nc1[P+](c1ccccc1)(c1ccccc1)c1ccccc1`, the GI50 was 168 nM and the TGI came to 676 nM. In the same order, the values of `CCN1CCN(c2nc(NNC(=O)Cc3ccccc3)nc(N3CCN(C(c4ccccc4)c4ccccc4)CC3)n2)CC1` are 1950 nM and 4520 nM. Taken in the same sequence, the figures for `O=C1c2ccccc2C(=O)c2c1ccc(C(Br)Br)c2[N+](=O)[O-]` were 541 nM and 2280 nM. Taken in the same sequence, the figures for `COc1ccc(/C=C/c2c(C(=O)/C=C/c3ccc(Cl)cc3)c(C)nc3ccccc23)cc1` were 1790 nM and 3540 nM. For the compound `COc1ccc(/C(C)=C(\c2ccc(Cl)cc2)c2ccc(OCCN3CCCC3)cc2)cc1`, the GI50 is 4030 nM and the TGI is 8850 nM. For `COc1ccc(SC2c3cc(OC)c(OC)cc3Oc3nc(N)c(C#N)c(N)c32)cc1` (configuration not stated), the GI50 was 320 nM and the TGI came out at 1530 nM. In the same order, the values of `CCOC(=O)c1sc(-c2ccc(OS(=O)(=O)c3cccs3)c(C=O)c2)nc1C` are 1310 nM and 4950 nM. For `CC(=O)Oc1ccc(OC(C)=O)c2ccccc12`, the GI50 is 477 nM and the TGI worked out at 2190 nM. Consider `C#CCN1C(=O)/C(=c2\sc3n(c2=O)C2C(NN=3)N(CC)C(=O)N2CC)c2ccccc21` (configuration not stated), for which the GI50 was 331 nM and the TGI was determined as 3240 nM.

For `COc1cc(C)c(C(=O)O[C@H]2[C@H](O[C@H]3[C@@H](O)COC(O[C@H]4C[C@H]5[C@@H]6CC=C7C[C@@H](O)CC[C@]7(C)[C@H]6CC[C@]5(C)[C@H]4[C@H](C)C(=O)CCC(C)C)[C@@H]3OC(C)=O)OC[C@@H](O)[C@@H]2O)c(C)c1` (some centres not stated), the GI50 was 17.1 nM and the TGI worked out at 1840 nM. Turning to `C[C@]12O[C@H](C[C@]1(O)CO)n1c3ccccc3c3c4c(c5c6ccccc6n2c5c31)CNC4=O`, the GI50 was 457 nM and 185 nM; the TGI is 2570 nM and 1650 nM. Regarding `CN(C)CCCNc1nn2c(=O)c3ccccc3nc2c2ccccc12`, the GI50 is 6230 nM and the TGI was 20000 nM. Consider `Nc1ncnc2c1c(C(F)(F)F)cn2[C@@H]1O[C@H](CO)[C@@H](O)[C@H]1O`, for which the GI50 was 242 nM and the TGI was 2140 nM. As for `Cl.[Pt].[c-]1ccccc1-c1ccccn1.c1ccc(P(c2ccccc2)C([PH+](c2ccccc2)c2ccccc2)[PH+](c2ccccc2)c2ccccc2)cc1`, the GI50 was 571 nM and the TGI worked out at 4210 nM. In the same order, the values of `Nc1ccc(-c2nc3ccc4[nH]ncc4c3c3c2CCCC3)cc1F` are 126 nM and 625 nM. Taken in the same sequence, the figures for `O=C(/C=C/c1ccc(C(F)(F)F)cc1)c1ccc(Nc2nc(NCCO)nc(NCCO)n2)cc1` were 2020 nM and 5070 nM. For `CC1(C)N=C(N)N=C(N)N1c1cccc(C#N)c1`, the GI50 is 2310 nM and the TGI was above 100000 nM. With `CC(=O)OCC1OC(OC2C(COC(C)=O)OC(OCCC[S-])C(OC(C)=O)C2OC(C)=O)C(OC(C)=O)C(OC(C)=O)C1OC(C)=O.[Au+].c1ccc(CN2[CH-]N(Cc3ccccc3)C(c3ccccc3)=C2c2ccccc2)cc1` (configuration not stated), the GI50 was 2810 nM and the TGI came to 12400 nM.
